Assay results published in US12539284B2, “Aminoxy acid-based anti-cancer stem cell compounds and methods thereof” (Westlake University, priority 2019, dated 2026).
Like-named read-outs stand apart in the source and are kept apart here. Blank lines part the entries; values can stand above or below the compound they belong to.

Legend:
HEY A8 cancer cells = assay: Apoptosis, Annexin V / PI flow cytometry, cancer cells; type: cell-based, human; details: 30 μM, 2 days
Experimental: A suspension of HEY A8 cells at the concentration of 5×10^4 cells/mL in DMEM medium were seeded into 60-mm cell culture dishes. Cells were incubated at 37° C. in a humidified atmosphere containing 5% CO2 for 24 h followed by the addition of 4 mL fresh medium or medium containing compound sff-2-112 (“Example 1”) or sff-2-132 (“Example 4”) at different concentration. […] After 2 days, the medium was aspirated and cells were washed with cold PBS twice, and then stained with PI and Annexin V according to the manufacture's instruction (Dead Cell Apoptosis Kit with Annexin V Alexa Fluor™ 488 & Propidium Iodide, Thermo Fisher). Cells were analyzed by flow cytometry (BD FACS CantoII Analyzer).

HEK293 = assay: Toxicity against normal cell line HEK293; type: cell-based
Source text: (§1) Fourteen compounds including aminoxy acid monomers and dipeptides have been identified to show toxicity against HEY A8 CSCs. The half maximal inhibitory concentration (IC50) values of compounds sff-2-112, sff-2-124, sff-2-132 and sff-2-100 towards adherent cancer HEY A8, SKOV3 cells and CSCs were further determined. […] Especially compound sff-2-132, its selectivity to CSCs is up to 60-fold higher than that to cancer cells. Their toxicity against other normal cell lines NIH3T3, HEK293 and MDCK were also tested and the IC50 values were summarized in Table 1.

SKOV3 CSCs (SKOV3 SP) = assay: Cell viability (CellTiter-Glo) on SKOV3 spheres (CSCs); type: cell-based, human; details: read-out: IC50 Cancer Stem Cell SKOV3 SP
Experimental: Cell Cultures Human ovarian carcinoma cell lines HEY A8 and SKOV3 were gifts from Professor Alice Wong's group (The University of Hong Kong). Cells were grown in Dulbecco's Modified Eagle (DMEM) medium supplemented with 10% FBS and 1% penicillin/streptomycin at 37° C. in a humidified atmosphere containing […] CO2. Isolation and culture of spheres were performed in serum-free stem-cell-selective condition as described in literature Ip etl. Oncogene 2014, 5, 9133-9149. Briefly, 1-2 weeks after plating, non-adherent spherical clusters of cells could be observed and were separated from single cells by low speed centrifugation. After 8th to 10th passages, the non-adherent spherical clusters of cells appeared as distinct spheres. Using this selection condition, HEY A8 spheres (HEY A8 SP) or SKOV3 spheres (SKOV3 SP) could be enzymatically dissociated and reformed into spheres within 3 days under stem-cell-selective condition. To allow differentiation, dissociated sphere cells were plated on tissue culture plates in medium (MCDB 105:M199=1:1) supplemented with 10% FBS and 1% PS.
HEY A8 SP cells or SKOV3 SP cells (5×10^4) were plated in triplicate in 10 mL serum-free MCDB105 medium in 100-mm Petri dish for 7 days to form spheres. […] After that, the reagent was transferred into 96-well plates and cell viability was measured using a microplate reader (SpectraMax 340PC 384, Molecular Devices).

HEY A8 CSCs = assay: Apoptosis, Annexin V / PI flow cytometry, CSCs; type: cell-based, human; details: 5 μM, 2 days; DMSO 4.92%
Experimental: A suspension of HEY A8 cells at the concentration of 5×10^4 cells/mL in DMEM medium were seeded into 60-mm cell culture dishes. Cells were incubated at 37° C. in a humidified atmosphere containing 5% CO2 for 24 h followed by the addition of 4 mL fresh medium or medium containing compound sff-2-112 (“Example 1”) or sff-2-132 (“Example 4”) at different concentration. Medium containing 0.1% DMSO was used as negative control. After 2 days, the medium was aspirated and cells were washed with cold PBS twice, and then stained with PI and Annexin V according to the manufacture's instruction (Dead Cell Apoptosis Kit with Annexin V Alexa Fluor™ 488 & Propidium Iodide, Thermo Fisher). Cells were analyzed by flow cytometry (BD FACS CantoII Analyzer).

HEY A8 cells [1] = assay: Superoxide production (HKSOX-2m fluorescence); type: cell-based, human; details: 5 μM, within 30 min
Experimental: The ability of compound sff-2-112 (“Example 1”) or sff-2-132 (“Example 4”) to induce ROS production was also evaluated on HEY A8 cells (FIG. 9). The ROS production was monitored by superoxide fluorescent probe HKSOX-2m. The increase in fluorescence intensity indicated superoxide production. (n=50-100 cells).
A suspension of HEY A8 cells at the concentration of 5×10^4 cells/mL in DMEM medium were seeded into 30-mm cell culture dishes with glass bottom (MatTek). Cells were incubated at 37° C. in a humidified atmosphere containing 5% CO2 for 24 h. Medium was aspirated and cells was washed with PBS buffer twice. Then 1 mL HBSS buffer containing 4 μM HKSOX-2m was added. Cells were incubated at 37° C. for 30 min before the buffer was aspirated and washed twice with HBSS buffer. Cells were imaged in 0.8 mL HBSS buffer. Fluorescence was monitored by confocal microscope (ZEISS LSM 710; Red channel: λex=543 nm). At t=180 s, compound in 0.2 mL HBSS buffer was added to give the final concentration of 5 μM. Quantitative data were obtained using the ZEN and GraphPad Prism software.

NIH3T3 = assay: Toxicity against normal cell line NIH3T3; type: cell-based
Source text: as §1

HEY A8 cells [2] = assay: Population of CD133+ cells by flow cytometry (PE-conjugated CD133 antibody); type: cell-based, human; details: 15 μM; for population of CD133+ cells after treatment: control 21.8%
Experimental: CD133 has been reported to be a marker of ovarian CSCs. After cells treated with synthetic molecule, the population of CD133^+ cells were measured. HEY A8 cells were treated with taxol (100 nM), compound sff-2-112 (“Example 1”) or sff-2-132 (“Example 4”) at the concentration of 15 μM. Medium containing 0.1% DMSO was used as a negative control.
A suspension of HEY A8 cells at the concentration of 2.5×10^4 cells/mL in DMEM medium were seeded into 60-mm cell culture dishes. Cells were incubated at 37° C. in a humidified atmosphere containing 5% CO2 for 24 h, followed by the addition of 4 mL fresh medium or medium containing Paclitaxel (100 nM), sff-2-112 (15 μM) or compound sff-2-132 (15 μM). Medium containing 0.1% DMSO was used as a negative control. After 3 days, the medium was removed and cells were washed with cold PBS twice, and then stained with PE-conjugated CD133 antibody according to the manufacture's instruction. The fluorescence was analyzed by flow cytometry.

SMILES: O=C(NO[C@H](COCc1ccccc1)C(=O)Nc1ccccc1)c1cc(C(F)(F)F)cc(C(F)(F)F)c1 [sff-2-112]
- Annexin V positive cells, cancer cells (HEY A8 cancer cells): 8.21%
- IC50 (HEK293): 51 ± 1 µM
- IC50 (SKOV3 CSCs (SKOV3 SP); 48 h incubation): 0.9 ± 0.9 µM
- Annexin V positive cells, CSCs (HEY A8 CSCs): 21.0%
- increasement of superoxide production (HEY A8 cells [1]): about 2 fold
- IC50 (NIH3T3): 30.5 ± 1.1 µM
- population of CD133+ cells relative to DMSO treated group (HEY A8 cells [2]): significantly reduced the population of CD133^+ cells
- population of CD133+ cells after treatment (HEY A8 cells [2]; 3 days): 12.6%

- IC50 (SKOV3 CSCs (SKOV3 SP); Homo sapiens, SK-OV-3, 48 h incubation): 1 ± 0.9 µM
SMILES: CC(C)(C)OC(=O)[C@@H](COCc1ccccc1)ONC(=O)c1cc(C(F)(F)F)cc(C(F)(F)F)c1 [sff-2-132]
- Annexin V positive cells, cancer cells (HEY A8 cancer cells): 1.30%
- IC50 (HEK293; Homo sapiens, HEK293): 70.3 ± 1.7 µM
- Annexin V positive cells, CSCs (HEY A8 CSCs): 30.4%
- increasement of superoxide production (HEY A8 cells [1]): about 2 fold
- IC50 (NIH3T3; Mus musculus, NIH3T3): 58 ± 2.2 µM
- population of CD133+ cells relative to DMSO treated group (HEY A8 cells [2]): significantly reduced the population of CD133^+ cells
- decrease of CD133+ population (HEY A8 cells [2]; 3 days, from 21.8%): around 10 fold
- population of CD133+ cells after treatment (HEY A8 cells [2]; 3 days): 1.9%
